Assay results reported in PMC10350927 (Journal of Medicinal Chemistry, 2023).
Substitutions are numbered along the chain they refer to. Where a name gives a salt, the structure may show the parent alone. Marks after values point to notes of the source that are not given here.

Experiments:
mSUCNR1 [1] = biological target: T1, mSUCNR1 (Mus musculus, UniProt Q99MT6); assay: BRET competition binding using 22 as tracer, mSUCNR1; conditions: 1 μM 22, Kd = […]; highest unlabeled ligand 30 μΜ
T1 sequence (Q99MT6 1-317): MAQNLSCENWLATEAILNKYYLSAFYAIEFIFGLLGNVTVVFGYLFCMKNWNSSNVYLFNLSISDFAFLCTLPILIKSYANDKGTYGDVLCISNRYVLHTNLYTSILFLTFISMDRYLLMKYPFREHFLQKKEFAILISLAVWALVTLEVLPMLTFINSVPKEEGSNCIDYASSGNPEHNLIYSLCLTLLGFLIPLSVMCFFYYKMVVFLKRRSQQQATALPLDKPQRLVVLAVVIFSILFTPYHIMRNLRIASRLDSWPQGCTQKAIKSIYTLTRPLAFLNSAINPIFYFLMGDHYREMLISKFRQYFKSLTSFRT

mSUCNR1 [2] = biological target: T1, mSUCNR1; assay: cAMP assay, agonist potency at mSUCNR1; assay type: cell-based; design: expressed in transfected cells; host or cells: Flp-In T-REx 293; conditions: for cAMP mSUCNR1 pEC50: Flp-In T-REx 293 cells, mean ± SEM, minimum three independent experiments
hSUCNR1 [3] = biological target: T2, hSUCNR1 (Homo sapiens, UniProt Q9BXA5); assay: BRET competition binding using 22 as tracer, hSUCNR1; conditions: 3 μM 22, Kd = 990 nM; mean ± SEM, three experiments
T2 sequence (Q9BXA5 1-334): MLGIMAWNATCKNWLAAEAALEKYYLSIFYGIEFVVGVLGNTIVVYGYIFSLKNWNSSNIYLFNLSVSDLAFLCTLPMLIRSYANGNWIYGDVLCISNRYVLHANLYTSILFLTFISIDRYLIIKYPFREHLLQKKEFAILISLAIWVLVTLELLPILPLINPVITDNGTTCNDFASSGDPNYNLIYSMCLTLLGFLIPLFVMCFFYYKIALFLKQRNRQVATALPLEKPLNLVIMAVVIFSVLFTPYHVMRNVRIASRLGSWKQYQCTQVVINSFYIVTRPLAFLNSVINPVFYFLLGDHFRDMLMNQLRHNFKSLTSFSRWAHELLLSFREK

hmSUCNR1 [4] = biological target: T3, hmSUCNR1 (Mus musculus, UniProt Q99MT6, G84W/K269N/N18E); assay: BRET competition binding using 22 as tracer, hmSUCNR1
T3 sequence (Q99MT6 1-317 N18E/G84W/K269N): T1 sequence (Q99MT6 1-317) with N18E, G84W, K269N

hmSUCNR1 [5] = biological target: T3, hmSUCNR1; assay: BRET competition binding using 46 as tracer, hmSUCNR1
hSUCNR1 [6] = biological target: T2, hSUCNR1; assay: cAMP assay, inhibition of succinate response at hSUCNR1; assay type: cell-based; design: expressed in transfected cells; host or cells: Flp-In T-REx 293; conditions: for cAMP hSUCNR1 pIC50: inhibition of […] succinate response, mean ± SEM
hSUCNR1 [7] = biological target: T2, hSUCNR1; assay: BRET competition binding using 46 as tracer, hSUCNR1; conditions: […] 46, Kd = 310 nM

For `O=C(O)C[C@H](NC(=O)c1cccc(-c2ccc(OC(F)(F)F)cc2)n1)C(=O)O` [Compound 3], the “Competion binding using 22 mSUCNR1 pKi” value (mSUCNR1 [1]) was 5.8 ± 0.1 and the “cAMP mSUCNR1 pEC50” value (mSUCNR1 [2]) was 6.58 ± 0.16.

For `Cc1cc(CN2CCN(C)CC2)ccc1-c1cccc(C(=O)Nc2ccccc2CC(=O)O)c1` [Compound 44, 4-((3′-((2-(Carboxymethyl)phenyl)carbamoyl)-2-methyl-[1,1′-biphenyl]-4-yl)methyl)-1-methylpiperazin-1-ium 2,2,2-trifluoroacetate], the “Competion binding using 22 mSUCNR1 pKi” value (mSUCNR1 [1]) was <4.5 ^d.

With `CN(C)CCCCCCOc1ccc(-c2ccc(C(=O)N[C@@H](CC(=O)O)C(=O)O)o2)cc1` [Compound 21, (S)-6-(4-(5-((1,2-Dicarboxyethyl)carbamoyl)furan-2-yl)phenoxy)-N,N-dimethylhexan-1-aminium 2,2,2-trifluoroacetate] the “cAMP mSUCNR1 pEC50” value (mSUCNR1 [2]) was 7.20 ± 0.02.

With `Cc1cc(Cl)ccc1-c1cccc(C(=O)Nc2ccccc2CC(=O)O)c1` [Compound 35, 2-(2-(4′-Chloro-2′-methyl-[1,1′-biphenyl]-3-carboxamido)phenyl)acetic acid] the “Competion binding using 22 mSUCNR1 pKi” value (mSUCNR1 [1]) was <4.5 ^d.

With `O=C(O)CCc1cccc(Oc2ccc(Oc3cccc4cnccc34)cc2C(F)(F)F)c1` [Compound 48] the “Competion binding using 22 hSUCNR1 pKi” value (hSUCNR1 [3]) was 5.9 ± 0.5, the “Competion binding using 22 mSUCNR1 pKi” value (mSUCNR1 [1]) was <4.5 ^d and the Ki (hmSUCNR1 [4]) was greater than 31600 nM. The Ki (hmSUCNR1 [5]) was greater than 31600 nM.

`NCCCCCOc1ccc(-c2ccc(C(=O)N[C@@H](CC(=O)O)C(=O)O)o2)cc1` [Compound 9c, (S)-5-(4-(5-((1,2-Dicarboxyethyl)carbamoyl)furan-2-yl)phenoxy)pentan-1-aminium 2,2,2-trifluoroacetate] was tested, and the “cAMP mSUCNR1 pEC50” value (mSUCNR1 [2]) was 6.91 ± 0.09.

For `CC(C)(C)OC(=O)NCCNCCCCCCOc1ccc(-c2ccc(C(=O)N[C@@H](CC(=O)O)C(=O)O)o2)cc1` [Compound 17, (S)-N-(2-((tert-Butoxycarbonyl)amino)ethyl)-6-(4-(5-((1,2-dicarboxyethyl)carbamoyl)furan-2-yl)phenoxy)hexan-1-aminium 2,2,2-trifluoroacetate], the “cAMP mSUCNR1 pEC50” value (mSUCNR1 [2]) was 7.40 ± 0.11.

`CC(C)(C)OC(=O)NCCCCOc1ccc(-c2cccc(C(=O)N[C@@H](CC(=O)O)C(=O)O)n2)cc1` [Compound 15b, (6-(4-(4-((tert-Butoxycarbonyl)amino)butoxy)phenyl)picolinoyl)-L-aspartic acid] was tested, and the “cAMP mSUCNR1 pEC50” value (mSUCNR1 [2]) was 5.97 ± 0.09.

With `CNCCCCCCOc1ccc(-c2ccc(C(=O)N[C@@H](CC(=O)O)C(=O)O)o2)cc1` [Compound 20, (S)-6-(4-(5-((1,2-Dicarboxyethyl)carbamoyl)furan-2-yl)phenoxy)-N-methylhexan-1-aminium 2,2,2-trifluoroacetate] the “cAMP mSUCNR1 pEC50” value (mSUCNR1 [2]) was 7.35 ± 0.05.

In the case of `CC(C)(C)OC(=O)NCCCCOc1ccc(-c2ccc(C(=O)N[C@@H](CC(=O)O)C(=O)O)o2)cc1` [Compound 8b, (5-(4-(4-((tert-Butoxycarbonyl)amino)butoxy)phenyl)furan-2-carbonyl)-L-aspartic acid], the “cAMP mSUCNR1 pEC50” value (mSUCNR1 [2]) is reported as 6.47 ± 0.18.

For `CC(C)(C)OC(=O)NCCCCCOc1ccc(-c2ccc(C(=O)N[C@@H](CC(=O)O)C(=O)O)o2)cc1` [Compound 8c, (5-(4-((5-((tert-Butoxycarbonyl)amino)pentyl)oxy)phenyl)furan-2-carbonyl)-L-aspartic acid], the “cAMP mSUCNR1 pEC50” value (mSUCNR1 [2]) was 6.60 ± 0.16 and the “fold decrease in potency on mSUCNR1” value (mSUCNR1 [2]; relative to agonist scaffold 2) was 2.5 fold.

With `NCCCCOc1ccc(-c2ccc(C(=O)N[C@@H](CC(=O)O)C(=O)O)o2)cc1` [Compound 9b, (5-(4-(4-Aminobutoxy)phenyl)furan-2-carbonyl)-L-aspartic acid hydrochloride] the “cAMP mSUCNR1 pEC50” value (mSUCNR1 [2]) was 7.13 ± 0.06.

For `CC(C)(C)OC(=O)NCCOCCOc1ccc(-c2cccc(C(=O)N[C@@H](CC(=O)O)C(=O)O)n2)cc1` [Compound 15e, (6-(4-(2-(2-((tert-Butoxycarbonyl)amino)ethoxy)ethoxy)phenyl)picolinoyl)-L-aspartic acid], the “cAMP mSUCNR1 pEC50” value (mSUCNR1 [2]) was 6.01 ± 0.18.

For `CC(C)(C)OC(=O)NCCN1CCN(Cc2ccc(-c3cccc(C(=O)Nc4ccccc4CC(=O)O)c3)cc2)CC1` [Compound 43, 1-(2-((tert-Butoxycarbonyl)amino)ethyl)-4-((3′-((2-(carboxymethyl)phenyl)carbamoyl)-[1,1′-biphenyl]-4-yl)methyl)piperazin-1-ium 2,2,2-trifluoroacetate], the “cAMP hSUCNR1 pIC50” value (hSUCNR1 [6]) was 6.82 ± 0.02.

For `CCOc1ccc(-c2ccc(C(=O)N[C@@H](CC(=O)O)C(=O)O)o2)cc1` [Compound 2], the “Competion binding using 22 mSUCNR1 pKi” value (mSUCNR1 [1]) was 6.2 ± 0.1 and the “cAMP mSUCNR1 pEC50” value (mSUCNR1 [2]) was 7.01 ± 0.04.

For `NCCCOc1ccc(-c2ccc(C(=O)N[C@@H](CC(=O)O)C(=O)O)o2)cc1` [Compound 9a, (S)-3-(4-(5-((1,2-Dicarboxyethyl)carbamoyl)furan-2-yl)phenoxy)propan-1-aminium 2,2,2-trifluoroacetate], the “cAMP mSUCNR1 pEC50” value (mSUCNR1 [2]) was 7.10 ± 0.11.

With `O=C(O)Cc1ccccc1NC(=O)c1cccc(-c2ccc(Cl)cc2)c1` [Compound 32, 2-(2-(4′-Chloro-[1,1′-biphenyl]-3-carboxamido)phenyl)acetic acid] the “Competion binding using 22 hSUCNR1 pKi” value (hSUCNR1 [3]) was 7.8 ± 0.3, the “Competion binding using 22 mSUCNR1 pKi” value (mSUCNR1 [1]) was <4.5 ^d and the “Competion binding using 46 hSUCNR1 pKi” value (hSUCNR1 [7]) was 7.6 ± 0.1. For the same compound, the Ki (hmSUCNR1 [4]) was 316 nM, the “fold lower affinity at hmSUCNR1 compared to hSUCNR1” value (hmSUCNR1 [4]; competition binding) was roughly 10 fold and the Ki (hmSUCNR1 [5]) was 251 nM. The “cAMP hSUCNR1 pIC50” value (hSUCNR1 [6]) was 6.31 ± 0.18.

With `Cc1ccc(C(=O)Nc2ccccc2CC(=O)O)cc1-c1ccc(Cl)cc1` [Compound 34, 2-(2-(4′-Chloro-6-methyl-[1,1′-biphenyl]-3-carboxamido)phenyl)acetic acid] the “fold increase in potency relative to 32” value (hSUCNR1 [6]; hSUCNR1 cAMP) was 3 fold and the “cAMP hSUCNR1 pIC50” value (hSUCNR1 [6]) was 6.78 ± 0.01.

With `CC(C)(C)OC(=O)NCCCOc1ccc(-c2ccc(C(=O)N[C@@H](CC(=O)O)C(=O)O)o2)cc1` [Compound 8a, (5-(4-(3-((tert-Butoxycarbonyl)amino)propoxy)phenyl)furan-2-carbonyl)-L-aspartic acid] the “cAMP mSUCNR1 pEC50” value (mSUCNR1 [2]) was 6.25 ± 0.09.

In the case of `CC(C)(C)OC(=O)NCCCCCCOc1ccc(-c2ccc(C(=O)N[C@@H](CC(=O)O)C(=O)O)o2)cc1` [Compound 8d, (5-(4-((6-((tert-Butoxycarbonyl)amino)hexyl)oxy)phenyl)furan-2-carbonyl)-L-aspartic acid], the “cAMP mSUCNR1 pEC50” value (mSUCNR1 [2]) is reported as 6.42 ± 0.11.

`NCCCCCCOc1ccc(-c2ccc(C(=O)N[C@@H](CC(=O)O)C(=O)O)o2)cc1` [Compound 9d, (S)-6-(4-(5-((1,2-Dicarboxyethyl)carbamoyl)furan-2-yl)phenoxy)hexan-1-aminium 2,2,2-trifluoroacetate] was tested, and the “Competion binding using 22 mSUCNR1 pKi” value (mSUCNR1 [1]) was 6.2 ± 0.1.

`CC(C)(C)OC(=O)NCCCCCOc1ccc(-c2cccc(C(=O)N[C@@H](CC(=O)O)C(=O)O)n2)cc1` [Compound 15c, (6-(4-((5-((tert-Butoxycarbonyl)amino)pentyl)oxy)phenyl)picolinoyl)-L-aspartic acid] was tested, and the “cAMP mSUCNR1 pEC50” value (mSUCNR1 [2]) was 5.68 ± 0.11.

In the case of `O=C(O)[C@H]1O[C@H]1C(=O)O` [Compound 47, cis-epoxysuccinic acid], the “Competion binding using 22 hSUCNR1 pKi” value (hSUCNR1 [3]) is reported as 4.1 ± 0.1 and the “Competion binding using 46 hSUCNR1 pKi” value (hSUCNR1 [7]) is reported as 4.1 ± 0.3.

`CC(C)(C)OC(=O)NCCCOc1ccc(-c2cccc(C(=O)N[C@@H](CC(=O)O)C(=O)O)n2)cc1` [Compound 15a, (6-(4-(3-((tert-Butoxycarbonyl)amino)propoxy)phenyl)picolinoyl)-L-aspartic acid] was tested, and the “cAMP mSUCNR1 pEC50” value (mSUCNR1 [2]) was 5.90 ± 0.08.

`CC(C)(C)OC(=O)NCCCCCCOc1ccc(-c2cccc(C(=O)N[C@@H](CC(=O)O)C(=O)O)n2)cc1` [Compound 15d, (6-(4-((6-((tert-Butoxycarbonyl)amino)hexyl)oxy)phenyl)picolinoyl)-L-aspartic acid] was tested, and the “cAMP mSUCNR1 pEC50” value (mSUCNR1 [2]) was 5.76 ± 0.07.
